This note sets out measurements from patent publication US4686206A, “Composition for activating function of phagocytes” (Sunstar Kabushiki Kaisha, priority 1984, dated 1987).

For data set [1], the system named is neutrophils. Description: Random migration of human neutrophils (Boyden chamber, PBS in lower part). Type of data set: cell-based. To be noted: Neutrophil, 1 μg/ml, 15 min preincubation, 1 to 3 hours at 37° C., relative to control = 100%, read-out: random motoricity. How it is done:
(§1) Neutrophils were separated from human peripheral blood and the effect of various tocopherylglycosides on random migration and chemotaxis of the neutrophils were measured by using Boyden chambers.
(§2) Tocopherol or a tocopheryl glycoside dissolved in 1% dimethylsulfoxide was added to a suspension containing 2.5×10^6 cells/ml of neutrophils so that a concentration of tocopherol or the tocopheryl glycoside was 1 μg/ml. After 15 minutes incubation at 37° C., the mixture was added to the upper part of the chamber. To the lower part of the chamber was added PBS in case of measuring random migration, or added 2×10^-8 M of N-formyl-methionyl-leucyl-phenylalanine in case of measuring chemotaxis. Then, the chamber was incubated at 37° C. for 1 to 3 hours. After incubation, the filter was fixed and stained with hematoxylin, and then the number of neutrophils migrated to the bottom of the filter was counted by using a microscope. As a control, the same procedure was repeated except that tocopherol or the tocopheryl glycoside was not added. In Table 1, the relative percentage of the counting obtained by addition of tocopherol or the tocopheryl glycoside is shown by taking the counting of the control as 100%.

Data set [2] deals with neutrophils. The data set can be described thus: Chemotaxis of human neutrophils (Boyden chamber, N-formyl-methionyl-leucyl-phenylalanine in lower part). Type of data set: cell-based. To be noted: Neutrophil, 1 μg/ml, 2×10^-8 M N-formyl-methionyl-leucyl-phenylalanine, 1 to 3 hours at 37° C., relative to control = 100%. How it is done:
as §1, §2

Data set [3] concerns neutrophils. Description: Phagocytosis of neutrophils (opsonized FITC-labeled Staphylococcus aureus IFO 13276). The class given is cell-based. Particulars: Homo sapiens, Neutrophil, 0.25 h; 1 μg/ml; 15 min at 37° C.; relative to control = 100%. How it is done: Neutrophils were separated from human peripheral blood and a suspension containing 2.5×10^6 cells/ml of neutrophils was prepared. Tocopherol or a different tocopheryl glycoside was added to 900 μl of this suspension so that the concentration of tocopherol or the tocopheryl glycoside was 1 μg/ml and the mixture was incubated at 37° C. for 15 minutes.
The suspension (100 μl) containing 1×10^9 cells/ml of opsonized Staphylococcus aureus (IFO 13276) labeled with fluorescein isothiocyanate was added to the mixture. The resulting mixture was incubated at 37° C. for 15 minutes. Then, the number of cells incorporated into 100 cells of neutrophils was counted by using a fluorescence microscope. As a control, the same procedure was repeated except that tocopherol or the tocopheryl glycoside was not added. In Table 2, the relative percentage of the counting obtained by addition of tocopherol or the tocopheryl glycoside is shown by taking the counting of the control as 100%.

Data set [4] concerns Pseudomonas aeruginosa (P-1 strain, Ikaken). The data set can be described thus: In vivo test to Pseudomonas aeruginosa (survival of infected mice). The arrangement: species or system ICR mice. Particulars: 1 mg/kg i.v. once a day for three days; 2.5×10^7 cells P. aeruginosa i.p.; after 24 hours; control 0%. How it is done:
An aqueous injectable solution of dl-α-tocopheryl glucoside or dl-α-tocopheryl mannoside (see Example 3) was intravenously injected to ICR mice (body weight: 20 to 25 g, 10 mice per a group (5 female mice and 5 male mice)) once a day (dose: 1 mg/kg) for three days continuously. After the final injection, 2.5×10^7 cells of Pseudomonas aeruginosa (P-1 strain, Ikaken) were injected i.p. and the percentage of survival animuls was determined after 24 hours. As a control, the same procedure was repeated except that an equal amount of distilled water was used instead of the tocopheryl glycoside and the percentage of survival animals was determined. As the result, the percentage of survival of the control group was 0%, whereas that of the group injected with dl-α-tocopherylglucoside or dl-α-tocopherylmannoside was 20%, respectively.

The nature of data set [5]: Acute toxicity (LD50) in rat. To be noted: in vivo.

`Cc1c(C)c2c(c(C)c1O)CCC(C)(CCCC(C)CCCC(C)CCCC(C)C)O2` (racemic) [dl-α-Tocopherol, reference compound]: the activity at 1 µg/mL in the data set on neutrophils [1] is 82 ± 12%; in the data set on neutrophils [2], 94 ± 5%; in the data set on neutrophils [3], 164 ± 16%.
For `Cc1c(C)c2c(c(C)c1OC1O[C@H](CO)[C@@H](O)[C@H](O)[C@H]1O)CCC(C)(CCCC(C)CCCC(C)CCCC(C)C)O2` (mixture of isomers) [dl-α-Tocopherylglucoside, dl-α-tocopherylglucoside], the activity at 1 µg/mL worked out at 98 ± 34% in the data set with neutrophils [1], 140 ± 6% with neutrophils [2] and 168 ± 31% with neutrophils [3]. In data set [4], this compound registered a percentage of survival of 20%. Moreover, the figures for the LD50 in data set [5] (ip) and in data set [5] (po) were not below 500 mg/kg and not below 5000 mg/kg, respectively.
For the compound `Cc1c(C)c2c(c(C)c1O[C@@H]1O[C@H](CO)[C@@H](O)[C@H](O)[C@@H]1O)CCC(C)(CCCC(C)CCCC(C)CCCC(C)C)O2` (mixture of isomers) [dl-α-Tocopherylmannoside], the results for the activity at 1 µg/mL in the data set with neutrophils [1], in the data set on neutrophils [2] and in the data set on neutrophils [3] were 71 ± 16%, 168 ± 3% and 219 ± 21%, respectively. The percentage of survival in data set [4] is given as 20%. Further, the LD50 in data set [5] (ip) was not below 500 mg/kg; in data set [5] (po) it was not below 5000 mg/kg.
As for `Cc1c(C)c2c(c(C)c1OC1O[C@H](CO)[C@H](O)[C@H](O)[C@H]1O)CCC(C)(CCCC(C)CCCC(C)CCCC(C)C)O2` (mixture of isomers) [dl-α-Tocopherylgalactoside, reference compound], the results for the activity at 1 µg/mL in the data set with neutrophils [1], with neutrophils [2] and in the data set on neutrophils [3] were 64 ± 8%, 85 ± 3% and 112 ± 9%, respectively.
